Laboratory results: publication PMC3605731 (Current pharmaceutical design, 2012)
Like-named read-outs stand apart in the source and are kept apart here.

What was measured:
HIV-1 in HeLa cells = test: Virus inhibition assay; format: cell-based; conditions: 48 hours
HIV-1 in GHOST cells = test: Virus inhibition assay; format: cell-based; conditions: 48 hours
HIV-1 RT K103N [1] = conditions: FEP/MC, relative to efavirenz; cited from earlier work
HIV-1 RT Y188L [2] = conditions: FEP/MC, relative to efavirenz; cited from earlier work
HIV-1 RT L100I [3] = conditions: FEP/MC, relative to nevirapine; cited from earlier work
HIV-1 RT Y181C [4] = conditions: FEP/MC, relative to nevirapine; cited from earlier work
HIV-1 RT K103N [5] = conditions: relative to efavirenz; cited from earlier work
HIV-1 RT Y188L [6] = conditions: relative to efavirenz; cited from earlier work
HIV-1 RT L100I [7] = conditions: relative to nevirapine; cited from earlier work
HIV-1 RT Y181C [8] = conditions: relative to nevirapine; cited from earlier work
[9] = tested on: HIV-1 infected human MT-2 cells; conditions: infected MT-2 human T-cell assay; cited from earlier work
HIV-1 protease [10] = conditions: cited from earlier work
HIV-1 protease [11] = conditions: cited from earlier work; remark: listed apart in the source

Compound: 2,6-dichlorobenzamido-1H-indole [Compound 5]
- HIV-1 inhibition (reduction in viral infectivity) (HIV-1 in HeLa cells; 0.2 μM): no appreciable inhibition
- HIV-1 inhibition (HIV-1 in HeLa cells; 10 μM): 30%
- HIV-1 inhibition (reduction in viral infectivity) (HIV-1 in GHOST cells; 0.2 μM): no appreciable inhibition
- HIV-1 inhibition (HIV-1 in GHOST cells; 10 μM): 30%
- viability (GHOST cells; 10 μM): 81%
- viability (GHOST cells; 50 μM): 46%

Compound: Cc1cc(C#N)cc(C)c1Oc1nc(Nc2ccc(C#N)cc2)nc(N)c1Br [etravirine]
- ΔΔG (computed), K103N (HIV-1 RT K103N [1]): -2.4 kcal/mol
- ΔΔG (computed), Y188L (HIV-1 RT Y188L [2]): -2.4 kcal/mol
- ΔΔG (predicted), L100I (HIV-1 RT L100I [3]): -0.9 kcal/mol
- ΔΔG (predicted), Y181C (HIV-1 RT Y181C [4]): -2.6 kcal/mol
- ΔΔG (experimental), K103N (HIV-1 RT K103N [5]): -2.00 ± 0.40 kcal/mol
- ΔΔG (experimental), Y188L (HIV-1 RT Y188L [6]): -2.07 ± 0.23 kcal/mol
- ΔΔG (experimental), L100I (HIV-1 RT L100I [7]): -2.36 ± 0.42 kcal/mol
- ΔΔG (experimental), Y181C (HIV-1 RT Y181C [8]): -1.36 ± 0.28 kcal/mol

Compound: Cc1ccnc2c1NC(=O)c1cccnc1N2C1CC1 [nevirapine]
- EC50 [9]: 110 nM

Compound: Nc1noc(C2CN3CCC2C3)n1 (stereo not shown) [oxadiazole]
- EC50 [9]: inactive

Compound: Ac-Ser-Leu-Asn-(Phe-Hea-Pro)-Ile-Val-OMe [JG-365]
- ΔΔGbind (calculated), heptapeptide → hexapeptide (deletion of valine) (HIV-1 protease [10]; FEP/MD, averaged for R and S): 3.3 ± 1.1 kcal/mol
- ΔΔGbind (experimental), heptapeptide → hexapeptide (HIV-1 protease [11]; from Ki values for an equilibrium mixture of R and S configurations): 3.8 ± 1.3 kcal/mol

Compound: Ac-Thr-Ile-Nle-ψ [CH2-NH]-Nle-Gln-Arg-NH2 [MVT-101]
- decrease of binding, single Nle to Met mutation (HIV-1 protease [10]): 0.7 kcal/mol

Compound: Ala-Ala-Phe[CH(OH)CH2]Gly-Val-Val-OMe [HEI]
- ΔΔGbind (computed), central hydroxyl S to R (HIV-1 protease [10]; FEP/MD): 3.37 ± 0.64 kcal/mol
- predicted enhancement of binding, Gly to Nle mutation (HIV-1 protease [10]): 1.7 kcal/mol
- ΔΔGbind (experimental), central hydroxyl S to R (HIV-1 protease [11]): 2.6 kcal/mol
